{"source": "patent US8802597B2", "about": "“Herbicidal pyrimidines” (E I du Pont de Nemours and Company, priority 2003, dated 2014)", "assay_in_all_cases": "Test C pre/postemergence", "assay_type_in_all_cases": "in vivo", "key": {"[1]": {"test_system": "yellow nutsedge (Cyperus esculentus)", "details": "Preemergence, scale 0 to 100, 0 no effect, 100 complete control", "summary_of_the_method": "(§1)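 Visual injury ratings, 0 (no effect) to 100 (complete control), made 12 to 14 days after treatment by comparison with untreated controls. Greenhouse plants received test chemical in a surfactant-containing non-phytotoxic solvent, either preemergence on planted seeds or postemergence at the 1- to 4-leaf stage.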"}, "[2]": {"test_system": "common (oilseed) sunflower (Helianthus annuus)", "details": "Preemergence, scale 0 to 100, 0 no effect, 100 complete control", "summary_of_the_method": "as §1"}, "[3]": {"test_system": "velvetleaf (Abutilon theophrasti)", "details": "Preemergence, scale 0 to 100, 0 no effect, 100 complete control", "summary_of_the_method": "as §1"}, "[4]": {"test_system": "crabgrass (Digitaria sanguinalis)", "details": "Preemergence", "summary_of_the_method": "as §1"}, "kochia (Kochia scoparia)": {"test_system": "kochia (Kochia scoparia)", "details": "Preemergence; for Plant response rating, Kochia: scale 0 to 100, 0 no effect, 100 complete control", "summary_of_the_method": "as §1"}, "[5]": {"test_system": "woolly cupgrass (Eriochloa villosa)", "details": "Preemergence", "summary_of_the_method": "as §1"}, "[6]": {"test_system": "Surinam grass (Brachiaria decumbens)", "details": "Preemergence, scale 0 to 100, 0 no effect, 100 complete control", "summary_of_the_method": "as §1"}, "[7]": {"test_system": "johnsongrass (Sorghum halepense)", "details": "Preemergence", "summary_of_the_method": "as §1"}, "[8]": {"test_system": "cocklebur (Xanthium strumarium)", "details": "Preemergence", "summary_of_the_method": "as §1"}, "[9]": {"test_system": "pigweed (Amaranthus retroflexus)", "details": "Preemergence, scale 0 to 100, 0 no effect, 100 complete control", "summary_of_the_method": "as §1"}, "[10]": {"test_system": "giant foxtail (Setaria faberii)", "details": "Preemergence", "summary_of_the_method": "as §1"}, "[11]": {"test_system": "morningglory (Ipomoea coccinea)", "details": "Preemergence", "summary_of_the_method": "as §1"}, "[12]": {"details": "16 g ai/ha, scale 0 to 100, 0 no effect, 100 complete control"}, "[13]": {"details": "62 g ai/ha, scale 0 to 100, 0 no effect, 100 complete control"}, "[14]": {"details": "31 g ai/ha, scale 0 to 100, 0 no effect, 100 complete control"}}, "data": [{"smiles": "Nc1nc(C2CC2)nc(C(=O)[O-])c1Cl.[Na+]", "note": "[Compound 77, 6-amino-5-chloro-2-cyclopropyl-4-pyrimidinecarboxylic acid monosodium salt]", "values": [{"measurement": "pest or weed control at 31 g/ha", "setting": "[1]; Cyperus, pre-emergence, 31 g ai/ha, read-out: Plant response rating, Nutsedge, Yellow", "value": 0, "unit": "%"}, {"measurement": "pest or weed control at 62 g/ha", "setting": "[1]; Cyperus, pre-emergence, 62 g ai/ha, read-out: Plant response rating, Nutsedge, Yellow", "value": 0, "unit": "%"}, {"measurement": "Plant response rating, Nutsedge, Yellow", "setting": "[1]; 16 g ai/ha", "value": 0}, {"measurement": "pest or weed control at 31 g/ha", "setting": "[2]; Helianthus annuus, pre-emergence, 31 g ai/ha, read-out: Plant response rating, Sunflower", "value": 50, "unit": "%"}, {"measurement": "pest or weed control at 62 g/ha", "setting": "[2]; Helianthus annuus, pre-emergence, 62 g ai/ha, read-out: Plant response rating, Sunflower", "value": 100, "unit": "%"}, {"measurement": "Plant response rating, Sunflower", "setting": "[2]; 16 g ai/ha", "value": 20}, {"measurement": "pest or weed control at 62 g/ha", "setting": "[3]; Abutilon theophrasti, pre-emergence, 62 g ai/ha, read-out: Plant response rating, Velvetleaf", "value": 85, "unit": "%"}, {"measurement": "Plant response rating, Velvetleaf", "setting": "[3]; 16 g ai/ha", "value": 10}, {"measurement": "Plant response rating, Velvetleaf", "setting": "[3]; 31 g ai/ha", "value": 30}, {"measurement": "pest or weed control at 31 g/ha", "setting": "[4]; Digitaria sanguinalis, pre-emergence, 31 g ai/ha, scale 0 to 100, 0 no effect, 100 complete control, read-out: Plant response rating, Crabgrass", "value": 0, "unit": "%"}, {"measurement": "pest or weed control at 62 g/ha", "setting": "[4]; Digitaria sanguinalis, pre-emergence, 62 g ai/ha, scale 0 to 100, 0 no effect, 100 complete control, read-out: Plant response rating, Crabgrass", "value": 0, "unit": "%"}, {"measurement": "Plant response rating, Crabgrass", "setting": "[4]; [12]", "value": 0}, {"measurement": "Plant response rating, Crabgrass", "setting": "[4]; 125 g ai/ha, scale 0 to 100", "value": 0}, {"measurement": "pest or weed control at 125 g/ha", "setting": "kochia (Kochia scoparia); Bassia scoparia, pre-emergence, 125 g ai/ha, scale 0 to 100, read-out: Plant response rating, Kochia", "value": 80, "unit": "%"}, {"measurement": "Plant response rating, Kochia", "setting": "kochia (Kochia scoparia); 16 g ai/ha", "value": 20}, {"measurement": "Plant response rating, Kochia", "setting": "kochia (Kochia scoparia); 62 g ai/ha", "value": 50}, {"measurement": "pest or weed control at 31 g/ha", "setting": "[5]; Eriochloa villosa, pre-emergence, 31 g ai/ha, scale 0 to 100, 0 no effect, 100 complete control, read-out: Plant response rating, Cupgrass, Woolly", "value": 0, "unit": "%"}, {"measurement": "pest or weed control at 62 g/ha", "setting": "[5]; Eriochloa villosa, pre-emergence, 62 g ai/ha, scale 0 to 100, 0 no effect, 100 complete control, read-out: Plant response rating, Cupgrass, Woolly", "value": 0, "unit": "%"}, {"measurement": "pest or weed control at 125 g/ha", "setting": "[5]; Eriochloa villosa, pre-emergence, 125 g ai/ha, scale 0 to 100, read-out: Plant response rating, Cupgrass, Woolly", "value": 0, "unit": "%"}, {"measurement": "Plant response rating, Cupgrass, Woolly", "setting": "[5]; [12]", "value": 0}, {"measurement": "Plant response rating, Surinam Grass", "setting": "[6]; 16 g ai/ha", "value": 0}, {"measurement": "pest or weed control at 31 g/ha", "setting": "[6]; Urochloa decumbens, pre-emergence, 31 g ai/ha, read-out: Plant response rating, Surinam Grass", "value": 0, "unit": "%"}, {"measurement": "pest or weed control at 62 g/ha", "setting": "[6]; Urochloa decumbens, pre-emergence, 62 g ai/ha, read-out: Plant response rating, Surinam Grass", "value": 0, "unit": "%"}, {"measurement": "Plant response rating, Johnsongrass", "setting": "[7]; [12]", "value": 0}, {"measurement": "Plant response rating, Johnsongrass", "setting": "[7]; [13]", "value": 0}, {"measurement": "Plant response rating, Johnsongrass", "setting": "[7]; 125 g ai/ha, scale 0 to 100", "value": 0}, {"measurement": "pest or weed control at 31 g/ha", "setting": "[7]; Sorghum halepense, pre-emergence, 31 g ai/ha, scale 0 to 100, 0 no effect, 100 complete control, read-out: Plant response rating, Johnsongrass", "value": 0, "unit": "%"}, {"measurement": "Plant response rating, Cocklebur", "setting": "[8]; [12]", "value": 55}, {"measurement": "Plant response rating, Cocklebur", "setting": "[8]; [14]", "value": 70}, {"measurement": "pest or weed control at 62 g/ha", "setting": "[8]; Xanthium strumarium, pre-emergence, 62 g ai/ha, scale 0 to 100, 0 no effect, 100 complete control, read-out: Plant response rating, Cocklebur", "value": 80, "unit": "%"}, {"measurement": "pest or weed control at 125 g/ha", "setting": "[8]; Xanthium strumarium, pre-emergence, 125 g ai/ha, scale 0 to 100, read-out: Plant response rating, Cocklebur", "value": 95, "unit": "%"}, {"measurement": "pest or weed control at 31 g/ha", "setting": "[9]; Amaranthus retroflexus, pre-emergence, 31 g ai/ha, read-out: Plant response rating, Pigweed", "value": 60, "unit": "%"}, {"measurement": "pest or weed control at 62 g/ha", "setting": "[9]; Amaranthus retroflexus, pre-emergence, 62 g ai/ha, read-out: Plant response rating, Pigweed", "value": 65, "unit": "%"}, {"measurement": "Plant response rating, Pigweed", "setting": "[9]; 16 g ai/ha", "value": 60}, {"measurement": "Plant response rating, Foxtail, Giant", "setting": "[10]; [12]", "value": 0}, {"measurement": "pest or weed control at 31 g/ha", "setting": "[10]; Setaria faberi, pre-emergence, 31 g ai/ha, scale 0 to 100, 0 no effect, 100 complete control, read-out: Plant response rating, Foxtail, Giant", "value": 0, "unit": "%"}, {"measurement": "pest or weed control at 62 g/ha", "setting": "[10]; Setaria faberi, pre-emergence, 62 g ai/ha, scale 0 to 100, 0 no effect, 100 complete control, read-out: Plant response rating, Foxtail, Giant", "value": 0, "unit": "%"}, {"measurement": "pest or weed control at 125 g/ha", "setting": "[10]; Setaria faberi, pre-emergence, 125 g ai/ha, scale 0 to 100, read-out: Plant response rating, Foxtail, Giant", "value": 0, "unit": "%"}, {"measurement": "Plant response rating, Morningglory", "setting": "[11]; [12]", "value": 5}, {"measurement": "Plant response rating, Morningglory", "setting": "[11]; [14]", "value": 50}, {"measurement": "Plant response rating, Morningglory", "setting": "[11]; [13]", "value": 50}, {"measurement": "Plant response rating, Morningglory", "setting": "[11]; 125 g ai/ha, scale 0 to 100", "value": 75}]}]}
